Experiment: xn = mol fraction of the nth substance listed
Conditions: 101 kPa

O=C([O-])C(F)(F)F.O=S(=O)(O)n1cc[n+](S(=O)(=O)O)c1 + CO
Conditions | electrical conductivity [S/m]
278.15 K, x1 = 0.0255 | 5.19
283.15 K, x1 = 0.0255 | 4.9
293.15 K, x1 = 0.0255 | 4.26
298.15 K, x1 = 0.0104 | 2.23
298.15 K, x1 = 0.0155 | 2.85
298.15 K, x1 = 0.0205 | 3.56
298.15 K, x1 = 0.0255 | 4.13
298.15 K, x1 = 0.05 | 5.45
303.15 K, x1 = 0.0255 | 4.05
318.15 K, x1 = 0.0255 | 3.52
323.15 K, x1 = 0.0255 | 3.46
328.15 K, x1 = 0.0255 | 3.37

CCCCc1n(S(=O)(=O)O)cc[n+]1S(=O)(=O)O.O=C([O-])C(F)(F)F + CO
Conditions | electrical conductivity [S/m]
278.15 K, x1 = 0.0255 | 3.18
283.15 K, x1 = 0.0255 | 3.01
288.15 K, x1 = 0.0255 | 2.89
293.15 K, x1 = 0.0255 | 2.72
298.15 K, x1 = 0.0052 | 1.41
298.15 K, x1 = 0.0155 | 1.76
298.15 K, x1 = 0.0255 | 2.65
303.15 K, x1 = 0.0255 | 2.45
313.15 K, x1 = 0.0255 | 2.08
318.15 K, x1 = 0.0255 | 1.91
323.15 K, x1 = 0.0255 | 1.73
328.15 K, x1 = 0.0255 | 1.69
333.15 K, x1 = 0.0255 | 1.57

CCc1n(S(=O)(=O)O)cc[n+]1S(=O)(=O)O.O=C([O-])C(F)(F)F + CO
Conditions | electrical conductivity [S/m]
278.15 K, x1 = 0.0255 | 3.75
288.15 K, x1 = 0.0255 | 3.44
298.15 K, x1 = 0.0104 | 1.64
298.15 K, x1 = 0.0155 | 1.93
298.15 K, x1 = 0.0205 | 2.27
303.15 K, x1 = 0.0255 | 3.03
308.15 K, x1 = 0.0255 | 2.95
318.15 K, x1 = 0.0255 | 2.51
323.15 K, x1 = 0.0255 | 2.36
328.15 K, x1 = 0.0255 | 2.19
333.15 K, x1 = 0.0255 | 1.96

Cc1n(S(=O)(=O)O)cc[n+]1S(=O)(=O)O.O=C([O-])C(F)(F)F + CO
Conditions | electrical conductivity [S/m]
283.15 K, x1 = 0.0255 | 4
288.15 K, x1 = 0.0255 | 3.64
298.15 K, x1 = 0.0052 | 1.38
298.15 K, x1 = 0.0155 | 2
298.15 K, x1 = 0.0205 | 2.41
298.15 K, x1 = 0.0255 | 3.29
298.15 K, x1 = 0.05 | 4.44
298.15 K, x1 = 0.08 | 4.49
298.15 K, x1 = 0.1 | 4.52
298.15 K, x1 = 0.12 | 4.03
298.15 K, x1 = 0.15 | 3.28
298.15 K, x1 = 0.18 | 2.42
298.15 K, x1 = 0.2 | 1.71
303.15 K, x1 = 0.0255 | 3.01
308.15 K, x1 = 0.0255 | 2.98
313.15 K, x1 = 0.0255 | 2.86
318.15 K, x1 = 0.0255 | 2.84
323.15 K, x1 = 0.0255 | 2.73
333.15 K, x1 = 0.0255 | 2.32
